According to PMC7031696 (Cell chemical biology, 2019):
Read-outs that look alike come from different tables or passages of the source.

Columns and labels:
[1] = system: 3D7-MR4 trophozoite parasite-infected RBCs; test: Metabolomic profiling (hydrophilic metabolite changes, UHPLC-MS); assay type: cell-based, Plasmodium falciparum
[2] = 1.5 h, 500 μM, pH 7.4
[3] = system: Plasmodium falciparum 3D7-A10 parasites; test: Stage specificity assay (8-h exposure of synchronized stages, IC50^8h); assay type: cell-based; settings: for IC50: Plasmodium falciparum
[4] = system: asynchronous 3D7-A10 parasite cultures; test: Standard 72-h exposure asexual blood stage susceptibility assay (IC50^72h); assay type: cell-based, Plasmodium falciparum; settings: Plasmodium falciparum, 3D7, 72 h, read-out: Overall (72hr assay) Mean IC50 (IC50^72h)
[5] = system: 3D7-MR4 trophozoite parasite-infected RBCs; settings: 10 × IC50^72h; ref Allman et al., 2016; cited from earlier work

Compound: CCCN(CCC)CC(O)COc1ccccc1C(=O)Nc1ccccc1 (centres unmarked) [MMV006455]
- Log2(fold changes) 3-phosphoglycerate ([1]; metabolite 3-phosphoglycerate, log2 fold change): 0.4787
- Log2(fold changes) 4-Pyridoxic acid ([1]; metabolite 4-Pyridoxic acid, log2 fold change): -0.2918
- Log2(fold changes) 4-aminobutyrate ([1]; metabolite 4-aminobutyrate, log2 fold change): 0.4559
- Log2(fold changes) 4-phosphopantetheine ([1]; metabolite 4-phosphopantetheine, log2 fold change): 0.0000
- Log2(fold changes) 4-phosphopantothenate ([1]; metabolite 4-phosphopantothenate, log2 fold change): 0.3730
- Log2(fold changes) 5-aminopentanoic acid ([1]; metabolite 5-aminopentanoic acid, log2 fold change): 0.0000
- Log2(fold changes) 5-methyl-THF ([1]; metabolite 5-methyl-THF, log2 fold change): 0.0000
- Log2(fold changes) 5-phosphoribosyl-1-pyrophosphate ([1]; metabolite 5-phosphoribosyl-1-pyrophosphate, log2 fold change): -0.9177
- Log2(fold changes) 6-phospho-D-gluconate ([1]; metabolite 6-phospho-D-gluconate, log2 fold change): 0.4580
- Log2(fold change) HVDD ([1]; metabolite HVDD): 0.0000
- Log2(fold change) Hydroxyisocaproic acid ([1]; metabolite Hydroxyisocaproic acid): 0.0000
- Log2(fold change) IDP ([1]; metabolite IDP): 0.0000
- Log2(fold change) IMP ([1]; metabolite IMP): 0.8206
- Log2(fold change) Inositol ([1]; metabolite Inositol): 0.0000
- Log2(fold change) Isopentyl-PP ([1]; metabolite Isopentyl-PP): 0.0000
- Log2(fold change) L-arginino-succinate ([1]; metabolite L-arginino-succinate): 0.0000
- Log2(fold change) LD ([1]; metabolite LD): -0.4790
- Log2(fold change) Myristoyl/tetradecanoyl-CoA ([1]; metabolite Myristoyl/tetradecanoyl-CoA): 0.0000
- Log2(fold change) N-Acetyl-L-alanine ([1]; metabolite N-Acetyl-L-alanine): -0.7708
- Log2(fold change) N-acetyl-L-ornithine ([1]; metabolite N-acetyl-L-ornithine): -1.4120
- Log2(fold change) N-acetyl-glucosamine-1/6-phosphate ([1]; metabolite N-acetyl-glucosamine-1/6-phosphate): 1.1792
- Log2(fold change) N-acetyl-glutamate ([1]; metabolite N-acetyl-glutamate): 0.9055
- Log2(fold change) N-acetyl-glutamine ([1]; metabolite N-acetyl-glutamine): -0.4062
- Log2(fold change) N-carbamoyl-L-aspartate ([1]; metabolite N-carbamoyl-L-aspartate): -1.3580
- Log2(fold change) NAD+ ([1]; metabolite NAD+): 0.6496
- Log2(fold change) NADH ([1]; metabolite NADH): -0.2919
- Log2(fold change) NADP+ ([1]; metabolite NADP+): 1.1032
- Log2(fold change) NADPH ([1]; metabolite NADPH): 1.2448
- Log2(fold change) O-acetyl-L-serine ([1]; metabolite O-acetyl-L-serine): 0.0000
- Log2(fold change) Octoluse 8/1P ([1]; metabolite Octoluse 8/1P): -0.0556
- Log2(fold change) Octoluse Bisphosphate ([1]; metabolite Octoluse Bisphosphate): 0.1196
- Log2(fold change) PD ([1]; metabolite PD): -1.7411
- Log2(fold change) PE ([1]; metabolite PE): 2.1593
- Log2(fold change) PEE ([1]; metabolite PEE): -6.2592
- Log2(fold change) PEEK ([1]; metabolite PEEK): -3.5426
- Log2(fold change) PVNF ([1]; metabolite PVNF): -1.5028
- Log2(fold change) Pyroglutamic acid ([1]; metabolite Pyroglutamic acid): -0.5503
- Log2(fold change) Pyrophosphate ([1]; metabolite Pyrophosphate): -0.6263
- Log2(fold change) Ribose-5-phosphate ([1]; metabolite Ribose-5-phosphate): 0.0000
- Log2(fold change) S-adenosyl-L-homocysteine ([1]; metabolite S-adenosyl-L-homocysteine): 0.2802
- Log2(fold change) S-adenosyl-L-methioninamine ([1]; metabolite S-adenosyl-L-methioninamine): 0.0000
- Log2(fold change) S-adenosyl-L-methionine ([1]; metabolite S-adenosyl-L-methionine): 0.0000
- Log2(fold change) S-methyl-5'-thioadenosine ([1]; metabolite S-methyl-5'-thioadenosine): 1.5238
- Log2(fold change) SD ([1]; metabolite SD): -2.2607
- Log2(fold change) SDL ([1]; metabolite SDL): 0.0000
- Log2(fold change) SID ([1]; metabolite SID): 0.0000
- Log2(fold change) Sedoheptulose bisphosphate ([1]; metabolite Sedoheptulose bisphosphate): 0.2316
- Log2(fold change) Thiamine pyrophosphate ([1]; metabolite Thiamine pyrophosphate): 0.0000
- Log2(fold changes) UDP-D-glucose ([1]; metabolite UDP-D-glucose, log2 fold change): 0.1600
- Log2(fold changes) UDP-D-glucuronate ([1]; metabolite UDP-D-glucuronate, log2 fold change): -0.0808
- Log2(fold changes) UDP-N-acetyl-glucosamine ([1]; metabolite UDP-N-acetyl-glucosamine, log2 fold change): 0.3510
- Log2(fold changes) UDP ([1]; metabolite UDP, log2 fold change): 0.8505
- Log2(fold changes) UMP ([1]; metabolite UMP, log2 fold change): -0.5223
- Log2(fold changes) UTP ([1]; metabolite UTP, log2 fold change): -1.8892
- Log2(fold change) hydroxyphenylpyruvate ([1]; metabolite hydroxyphenylpyruvate): 0.0000
- Log2(fold change) hydroxyproline/Aminolevulinate ([1]; metabolite hydroxyproline/Aminolevulinate): 0.0000
- Log2(fold change) hypoxanthine ([1]; metabolite hypoxanthine): 0.1926
- Log2(fold change) indole ([1]; metabolite indole): -0.2645
- Log2(fold change) inosine ([1]; metabolite inosine): 0.3717
- Log2(fold change) isoleucine ([1]; metabolite isoleucine): 0.0000
- Log2(fold change) lactate ([1]; metabolite lactate): 1.3382
- Log2(fold change) leucine ([1]; metabolite leucine): 0.0000
- Log2(fold change) lysine ([1]; metabolite lysine): 0.0000
- Log2(fold change) malate ([1]; metabolite malate): 1.2603
- Log2(fold change) maleic acid ([1]; metabolite maleic acid): 0.0000
- Log2(fold change) methionine ([1]; metabolite methionine): 0.0000
- Log2(fold change) myo-inositol ([1]; metabolite myo-inositol): 3.3468
- Log2(fold change) nicotinamide mononucleotide ([1]; metabolite nicotinamide mononucleotide): 0.0000
- Log2(fold change) nicotinate ([1]; metabolite nicotinate): 0.0981
- Log2(fold change) ornithine ([1]; metabolite ornithine): -0.2237
- Log2(fold change) orotate ([1]; metabolite orotate): -1.3257
- Log2(fold change) orotidine-5'-phosphate ([1]; metabolite orotidine-5'-phosphate): 0.0000
- Log2(fold change) oxaloacetate ([1]; metabolite oxaloacetate): 0.0000
- Log2(fold change) p-aminobenzoate ([1]; metabolite p-aminobenzoate): 0.0000
- Log2(fold change) p-hydroxybenzoate ([1]; metabolite p-hydroxybenzoate): 0.4381
- Log2(fold change) pantothenate ([1]; metabolite pantothenate): 0.0000
- Log2(fold change) phenylalanine ([1]; metabolite phenylalanine): 0.0000
- Log2(fold change) phenylpyruvate ([1]; metabolite phenylpyruvate): 0.1142
- Log2(fold change) phosphoenolpyruvate ([1]; metabolite phosphoenolpyruvate): 0.0121
- Log2(fold change) prephenate ([1]; metabolite prephenate): 0.0000
- Log2(fold change) proline ([1]; metabolite proline): 0.0000
- Log2(fold change) pyridoxine ([1]; metabolite pyridoxine): 0.0000
- Log2(fold change) pyruvate ([1]; metabolite pyruvate): 0.4670
- Log2(fold change) riboflavin ([1]; metabolite riboflavin): 0.0000
- Log2(fold change) ribose ([1]; metabolite ribose): 0.0000
- Log2(fold change) ribose-phosphate ([1]; metabolite ribose-phosphate): -0.0481
- Log2(fold change) ribulose-5-phosphate ([1]; metabolite ribulose-5-phosphate): 0.0000
- Log2(fold change) serine ([1]; metabolite serine): 0.0000
- Log2(fold change) sn-glycerol-3-phosphate ([1]; metabolite sn-glycerol-3-phosphate): -0.3619
- Log2(fold change) succinate/Methylmalonic acid ([1]; metabolite succinate/Methylmalonic acid): -0.7549
- Log2(fold change) succinyl-CoA/methylmalonyl-CoA ([1]; metabolite succinyl-CoA/methylmalonyl-CoA): 0.0000
- Log2(fold change) taurine ([1]; metabolite taurine): 0.0000
- Log2(fold change) thiamine ([1]; metabolite thiamine): 0.0000
- Log2(fold change) threonine/homoserine ([1]; metabolite threonine/homoserine): 0.0000
- Log2(fold change) thymidine ([1]; metabolite thymidine): -0.5446
- Log2(fold changes) thymine ([1]; metabolite thymine, log2 fold change): 3.4235
- Log2(fold changes) trehalose-6-Phosphate ([1]; metabolite trehalose-6-Phosphate, log2 fold change): 0.0000
- Log2(fold changes) tryptophan ([1]; metabolite tryptophan, log2 fold change): 0.0000
- Log2(fold changes) tyrosine ([1]; metabolite tyrosine, log2 fold change): 0.0000
- Log2(fold changes) uridine ([1]; metabolite uridine, log2 fold change): 0.2304
- Ratio fil./std. (absorbance filtrate/standard) [2]: 1.00
- Ratio lowest IC50 8hr/IC50 72hr ([3]; 3D7-A10): 1.0
- killing in stage specificity assay ([3]; 8-h exposures, survival curves): incomplete killing at all asexual blood stages
- IC50 ([3]; 3D7, read-out: Early rings IC50 (IC50^8h), 8-h exposure 0–8 hr, bound given in μM): > 12.5 µM
- IC50 ([3]; 3D7, read-out: Early trophozoites Mean IC50 (IC50^8h), 8-h exposure 16–24 hr, 3D7-A10, survival at 60 h): 0.441 µM
- IC50 ([3]; 3D7, read-out: Late rings IC50 (IC50^8h), 8-h exposure 8–16 hr, bound given in μM): > 12.5 µM
- IC50 ([3]; 3D7, read-out: Late trophozoites Mean IC50 (IC50^8h), 8-h exposure 24–32 hr, 3D7-A10, survival at 60 h): 0.45 µM
- IC50 ([3]; 3D7, read-out: Schizonts Mean IC50 (IC50^8h), 8-h exposure 32–40 hr, 3D7-A10, survival at 60 h): 0.933 µM
- Stage of peak activity (Figure 6) ([3]; period when the parasite was most susceptible (lowest IC50^8h)): trophozoites
- Peak Activity (Table S1) ([3]; stage(s) with the lowest IC50^8h): Trophs
- IC50 [4]: 0.439 µM
- levels of cAMP [5]: decreased
- levels of the deoxyribonucleotides dAMP and dTMP [5]: increased
- peptide levels (hemoglobin catabolism signature) [5]: decreased peptide levels
- solubility at 1.5 h (physchem; pH 7.4): > 100 µM
- solubility at 1.5 h (physchem; pH 7.4, aqueous buffer, kinetic from dmso stock): ≥ 500 µM
